Laboratory results as given in patent US11098056B2, “UDP glycosyltransferase inhibitors and methods of use” (GENZYME CORPORATION, priority 2018, dated 2021).

Molecular target: T1, UGT8 (Homo sapiens, UniProt Q16880)
T1 construct: host or cells: OE19 cells
T1 sequence (Q16880 21-541): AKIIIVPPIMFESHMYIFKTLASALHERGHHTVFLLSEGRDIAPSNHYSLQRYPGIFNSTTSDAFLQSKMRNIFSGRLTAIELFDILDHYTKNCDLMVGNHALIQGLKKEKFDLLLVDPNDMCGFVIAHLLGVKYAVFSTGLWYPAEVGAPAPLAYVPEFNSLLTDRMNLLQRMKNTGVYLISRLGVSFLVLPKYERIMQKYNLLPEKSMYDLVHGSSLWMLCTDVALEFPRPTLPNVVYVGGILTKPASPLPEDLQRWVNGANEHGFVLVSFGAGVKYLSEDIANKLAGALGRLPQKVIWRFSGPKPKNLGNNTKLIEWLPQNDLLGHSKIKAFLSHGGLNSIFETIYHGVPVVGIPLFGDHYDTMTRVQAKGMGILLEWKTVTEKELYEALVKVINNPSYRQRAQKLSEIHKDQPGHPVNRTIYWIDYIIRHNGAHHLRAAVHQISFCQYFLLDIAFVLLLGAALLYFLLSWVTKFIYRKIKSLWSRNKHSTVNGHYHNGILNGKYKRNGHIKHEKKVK
Test: In vitro sulfatide (SFT) synthesis inhibition in OE19 cells, LC-MS/MS readout
Format: cell-based
Settings: 72 hr, sulfatide by LC-MS/MS, read-out: Potency range (IC50, In-vitro SFT)
Method in brief: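 OE19 cells, 2,500/well, exposed to compound dose-downs in triplicate for 72 hr at 37° C (screening at 10 μM final). Sulfatide quantified by LC-MS/MS (C8 UPLC, isocratic, negative-ion MRM) with C17 SFT internal standard; IC50 from concentration-response curves.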

| IC50 | Compound |
| --- | --- |
| < 100 nM | CNC(=O)c1csc2c(C(F)(F)F)cc(N3CC4(CN(C(=O)OC(C)CC#N)C4)C3)nc12 (centres unmarked) [Example 350, 1-Cyanopropan-2-yl 6-(3-(methylcarbamoyl)-7-(trifluoromethyl)thieno[3,2-b]pyridin-5-yl)-2,6-diazaspiro[3.3]heptane-2-carboxylate] |
| < 100 nM | CNC(=O)c1csc2c(C(F)(F)F)c(F)c(N3CCC(OC(=O)NC4CC4)CC3)nc12 [Example 641, [1-[6-fluoro-3-(methylcarbamoyl)-7-(trifluoromethyl)thieno[3,2-b]pyridin-5-yl]-4-piperidyl] N-cyclopropylcarbamate] |
| < 100 nM | CNC(=O)c1csc2c(C(F)(F)F)c(C)c(O[C@H]3C[C@@H](NC(=O)O[C@@H](C)C4CC4)C3)nc12 [Example 220, (S)-1-Cyclopropylethyl ((1S,3R)-3-((6-methyl-3-(methylcarbamoyl)-7 (trifluoromethyl)thieno[3,2-b]pyridin-5-yl)oxy)cyclobutyl)carbamate] |
| 100 to 1000 nM | CNC(=O)c1csc2c(C(F)(F)F)cc(O[C@H]3CCN(C(=O)NCC4CC4)C3)nc12 [Example 594, (S)-5-((1-((Cyclopropylmethyl)carbamoyl)pyrrolidin-3-yl)oxy)-N-methyl-7-(trifluoromethyl)thieno[3,2-b]pyridine-3-carboxamide] |
| < 100 nM | CNC(=O)c1csc2c(C(F)(F)F)cc(O[C@H]3CCN(C(=O)OCC4CC4)C3)nc12 [Example 595, Cyclopropylmethyl (S)-3-((3-(methylcarbamoyl)-7-(trifluoromethyl)thieno[3,2-b]pyridin-5-yl)oxy)pyrrolidine-1-carboxylate] |
| < 100 nM | CNC(=O)c1csc2c(C(F)(F)F)cc(N3CCC(OC(=O)NC(C)C)C(F)(F)C3)nc12 (centres unmarked) [Example 91, 3,3-Difluoro-1-(3-(methylcarbamoyl)-7-(trifluoromethyl)thieno[3,2-b]pyridin-5-yl)piperidin-4-yl isopropylcarbamate] |
| < 100 nM | CNC(=O)c1csc2c(C(F)(F)F)cc(OC3CN(C(=O)OCCOC(F)(F)F)C3)nc12 [Example 256, 2-(Trifluoromethoxy)ethyl 3-((3-(methylcarbamoyl)-7-(trifluoromethyl)thieno[3,2-b]pyridin-5-yl)oxy)azetidine-1-carboxylate] |
| < 100 nM | CNC(=O)c1csc2c(C(F)(F)F)cc(N3CCC(NC(=O)OCC(C)C)CC3)nc12 [Example 297, Isobutyl (1-(3-(methylcarbamoyl)-7-(trifluoromethyl)thieno[3,2-b]pyridin-5-yl)piperidin-4-yl) carbamate] |
| < 100 nM | CNC(=O)c1csc2c(C(F)(F)F)cc(OC3(C)CN(C(=O)OCCOC(F)(F)F)C3)nc12 [Example 254, 2-(Trifluoromethoxy)ethyl 3-methyl-3-((3-(methylcarbamoyl)-7-(trifluoromethyl)thieno[3,2-b]pyridin-5-yl)oxy)azetidine-1-carboxylate] |
| 100 to 1000 nM | CNC(=O)c1c(C)sc2c(C(F)(F)F)cc(N3CCN(CC(=O)NC(C)C)CC3)nc12 [Example 408, 5-(4-(2-(Isopropylamino)-2-oxoethyl)piperazin-1-yl)-N,2-dimethyl-7-(trifluoromethyl)thieno[3,2-b]pyridine-3-carboxamide] |
| 100 to 1000 nM | CNC(=O)c1csc2c(C(F)(F)F)cc(O[C@H]3C[C@@H](OC(=O)NC4COC4)C3)nc12 [Example 822, (+/−)-cis-(1S,3S)-3-((3-(Methylcarbamoyl)-7-(trifluoromethyl)thieno[3,2-b]pyridin-5-yl)oxy)cyclobutyl oxetan-3-ylcarbamate] |
| 100 to 1000 nM | CNC(=O)c1csc2c(C(F)(F)F)cc(N3CCN(CC(C)OCC4CC4)CC3)nc12 (racemic) [Example 39, (+/−)-5-(4-(2-(Cyclopropylmethoxy)propyl)piperazin-1-yl)-N-methyl-7-(trifluoromethyl)thieno[3,2-b]pyridine-3-carboxamide] |
| < 100 nM | CNC(=O)c1csc2c(C(F)(F)F)cc(O[C@@H]3CCN(C(=O)OCCOC(F)(F)F)[C@H](C)C3)nc12 (racemic) [Example 371, (+/−)-cis-2-(Trifluoromethoxy)ethyl-2-methyl-4-((3-(methylcarbamoyl)-7-(trifluoromethyl)thieno[3,2-b]pyridin-5-yl)oxy)piperidine-1-carboxylate] |
| > 1000 nM | CNC(=O)c1csc2c(C(F)(F)F)cc(OC3CC4COCC(C3)N4C(=O)OC(C)(C)C)nc12 (centres unmarked) [Example 750] |
| < 100 nM | [2H]C([2H])([2H])NC(=O)c1csc2c(C(F)(F)F)cc(N3CCC(OC(=O)NC4CC4)CC3)nc12 [Example 653, [1-[3-(Trideuteriomethylcarbamoyl)-7-(trifluoromethyl)thieno[3,2-b]pyridin-5-yl]-4-piperidyl] N-cyclopropylcarbamate] |
| < 100 nM | CNC(=O)c1csc2c(C(F)(F)F)cc(O[C@H]3C[C@@H](OC(=O)N[C@@H](C)COC(F)(F)F)C3)nc12 (racemic) [Example 833, (+/−)-cis-(1S,3R)-3-((3-(Methylcarbamoyl)-7-(trifluoromethyl)thieno[3,2-b]pyridin-5-yl)oxy)cyclobutyl ((S)-1-(trifluoromethoxy)propan-2-yl)carbamate] |
| < 100 nM | CNC(=O)c1csc2c(C(F)(F)F)cc(N3CCC(OC(=O)N4CC(OC(F)F)C4)CC3)nc12 [Example 87, 1-(3-(Methylcarbamoyl)-7-(trifluoromethyl)thieno[3,2-b]pyridin-5-yl)piperidin-4-yl 3-(difluoromethoxy)azetidine-1-carboxylate] |
| 100 to 1000 nM | CNC(=O)c1csc2c(C(F)(F)F)cc(N3CC(Oc4cncc(F)c4)C3)nc12 [Example 190, 5-(3-((5-Fluoropyridin-3-yl)oxy)azetidin-1-yl)-N-methyl-7-(trifluoromethyl)thieno[3,2-b]pyridine-3-carboxamide] |
| < 100 nM | CNC(=O)c1csc2c(C(F)(F)F)cc(N3CCC(OC(=O)NCC4CC4)CC3)nc12 [Example 474, 1-(3-(Methylcarbamoyl)-7-(trifluoromethyl)thieno[3,2-b]pyridin-5-yl)piperidin-4-yl (cyclopropylmethyl)carbamate] |
| < 100 nM | CNC(=O)c1csc2c(C(F)(F)F)cc(N3CC[C@H](OC(=O)NC(C)C)[C@@H](F)C3)nc12 (racemic) [Example 490, (+/−)-tran-3-Fluoro-1-(3-(methylcarbamoyl)-7-(trifluoromethyl)thieno[3,2-b]pyridin-5-yl)piperidin-4-yl isopropylcarbamate] |
| < 100 nM | CNC(=O)c1csc2c(C(F)(F)F)cc(N3CCC(NC(=O)OC(C)C)CC3)nc12 [Example 816, Isopropyl (1-(3-(methylcarbamoyl)-7-(trifluoromethyl)thieno[3,2-b]pyridin-5-yl)piperidin-4-yl)carbamate] |

| Compound | IC50 |
| --- | --- |
| COC(=O)c1csc2c(C(F)(F)F)cc(N3CCC(NC(=O)OC(C)(C)C)C3)nc12 (centres unmarked) [Example 659, Methyl 5-[3-(tert-butoxycarbonylamino)pyrrolidin-1-yl]-7-(trifluoromethyl)thieno[3,2-b]pyridine-3-carboxylate] | 100 to 1000 nM |
| CNC(=O)c1csc2c(C(F)(F)F)cc(C3CC4(C3)CN(C(=O)OCCOC(F)(F)F)C4)nc12 [Example 576, 2-(Trifluoromethoxy)ethyl 6-(3-(methylcarbamoyl)-7-(trifluoromethyl)thieno[3,2-b]pyridin-5-yl)-2-azaspiro[3.3]heptane-2-carboxylate] | < 100 nM |
